{"source": "patent US20040048791A1", "about": "“Method for treating neoplastic cells using cycloprodigiosin or salt thereof” (priority 2002, published 2004)", "key": {"NF-κB [1]": {"system": "NF-κB", "test": "EMSA of NF-κB DNA binding activity in nuclear extract", "assay_type": "cell-based", "experimental": "Electrophoretic mobility shift assay (EMSA): Nuclear extracts were prepared by the method of Schreiber, et al (Schreiber, E., Matthias, P., Muller, M. M. and Schaffner, W. (1989) Nucleic Acids Res. 17, 6419). Briefly, cells were solubilized with a buffer (10 mM HEPES-NaOH, pH 7.9, 10 mM KCl, 0.1 mM EDTA, 0.1 mM EGTA, 0.4% NP-40, 0.5 mM PMSF, 1 μg/ml aprotinin, 1 μg/ml leupeptin, 1 μg/ml pepstatin, 1 mM DTT), and then centrifuged at 10,000 rpm for 15 min. The pellets were resuspended in a buffer (20 mM HEPES-NaOH, pH 7.9, 400 mM NaCl, 1 mM EDTA, 1 mM EGTA, 1 mM PMSF, 1 μg/ml aprotinin, 1 μg/ml leupeptin, 1 μg/ml pepstatin, 1 μg/ml chymostatin, 1 μg/ml antipain, 1 mM DTT), and then centrifuged at 15,000 rpm for 15 min. […] The samples were electrophoresed on an 8% polyacrylamide gel and analyzed by an Imaging plate (Fuji Film).\nIn order to find out the mechanism of NF-κB suppression by cPrG-HCl, the effect on the signal transduction system, which functions upstream of NF-κB, was analyzed. […] Next, the effect of cPrG-HCl on phosphorylation and degradation of IκB was analyzed by Western blotting using anti-IκB antibody (FIG. 2E). […] Accordingly, nuclear translocation of NF-κB was analyzed by Western blotting using p65 and p50 which are components of NF-κB (FIG. 2F). […] Further, the state of NF-κB activation in the nucleus was analyzed by EMSA (electrophoretic mobility shift assay) (FIG. 2G). […]"}, "JNK": {"system": "JNK", "test": "JNK kinase activity after immune precipitation from HeLa cells", "assay_type": "cell-based", "details": "1 μM, TNFα or PMA 15 minutes, FIG. 9A, hydrochloride", "experimental": "HeLa cells were pretreated with cPrG-HCl (1 μM) for 1 hour and then stimulated with TNFα (20 ng/ml) or PMA (1 μg/ml) for 15 minutes, and JNK recovered by an immune precipitation method was then reacted with [γ-^32P]-ATP and a substrate GST-c-Jun, after which SDS-PAGE was carried out and the resulting gel was analyzed by an imaging analyzer. Further, HeLa cells were pretreated with cPrG-HCl (1 μM) for 1 hour and then stimulated with TNFα (20 ng/ml) for 15 minutes, a cell extract was recovered and subjected to SDS-PAGE and Western blotting was carried out using p38 phosphorylation antibody."}, "NF-κB [2]": {"system": "NF-κB", "details": "earlier abstract of the inventors (Kamata et al., 2000); cited from earlier work"}, "NF-κB [3]": {"system": "NF-κB", "details": "earlier abstract of the inventors (Kamata et al., 2000); cited from earlier work", "remark": "listed apart in the source"}, "HeLa cells": {"system": "HeLa cells", "test": "DNA fragmentation (apoptosis) in HeLa cells", "assay_type": "cell-based", "details": "cPrG-HCl together with TNFα, FIG. 1A, hydrochloride", "experimental": "Cell culture: HeLa cells were cultured in Dulbecco's modified Eagle's medium supplemented with 10% fetal bovine serum and 50 μg/ml kanamycin at 37° C. in 5% CO2 in air.\nAssay for apoptotic processes: Cell viability was determined by dye exclusion assay using 0.1% trypan blue. DNA fragmentation was analyzed as described previously (Kawauchi, K. et al. (1997) Biochem. Biophys. Res. Commun. 237, 543-547). In the caspase-3 assay, cells were disrupted by freeze-thaw in an extraction buffer (50 mM Tris-HCl, pH7.4, 1 mM EGTA, 5 mM EDTA, 5 mM MgCl2, 1 mM APMSF, 10 μg/ml pepstatin, 10 μg/ml leupeptin, and 1 mM DTT). Then the suspension was centrifuged at 15,000 rpm for 20 min, and the supernatants obtained were incubated at 37° C. for 60 min in a reaction buffer (50 mM Tris-HCl, pH7.4, 1 mM EDTA, 10 mM EGTA) with 20 μM of the fluorogenic substrate DEVD-AFC (Peptide Institute, Inc., Japan). Cleavage of the substrates was quantified by measuring the fluorescence of 7-amino-4-trifluomethyl coumarin released using a spectrofluorometer (Shimadzu RF5000) with excitation at 380 mn and emission at 460 nm.\nHeLa cells were treated with TNFα and cPrG.HCl and the effect of cPrG.HCl on apoptosis was examined by measuring DNA fragmentation and survivability."}, "casein kinase II (CKII)": {"target": "casein kinase II (CKII) (Homo sapiens, UniProt P68400)", "sequence (P68400 whole entry)": "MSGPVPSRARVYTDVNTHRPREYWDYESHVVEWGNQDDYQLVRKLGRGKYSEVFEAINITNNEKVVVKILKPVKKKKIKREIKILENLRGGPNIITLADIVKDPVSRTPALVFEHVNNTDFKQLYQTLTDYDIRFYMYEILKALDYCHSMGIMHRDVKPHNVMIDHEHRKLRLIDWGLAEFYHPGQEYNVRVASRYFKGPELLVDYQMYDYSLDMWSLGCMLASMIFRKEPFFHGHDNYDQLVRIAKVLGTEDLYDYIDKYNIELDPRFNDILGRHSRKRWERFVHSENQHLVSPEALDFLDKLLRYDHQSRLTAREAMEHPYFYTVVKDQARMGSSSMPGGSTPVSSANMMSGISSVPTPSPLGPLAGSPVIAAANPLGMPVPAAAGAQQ", "test": "Casein kinase II activity in vitro", "assay_type": "biochemical", "details": "FIG. 12, hydrochloride", "description": "Accordingly, in order to identify the p65 kinase which cPrG-HCl suppressed, the effect of cPrG-HCl on PKA (FIG. 13), casein kinase II (CKII) (FIG. 12), and IκB kinase (IKK) (FIG. 14) was studied in vitro."}, "CRE binding factor": {"system": "CRE binding factor", "test": "CRE luciferase assay (pCRELuc) in COS-7 cells", "assay_type": "cell-based, African green monkey", "details": "PMA 1 μg/ml 4 hours, FIG. 8", "experimental": "Here in order to analyze the effect of cPrG-HCl on the CRE binding factor, luciferase assay was carried out using a reporter plasmid (pCRELuc) in which the luciferase gene is linked downstream of the CRE sequence.\nThe pCRELuc was transfected in COS-7 cells. After 24 hours, the cells were pretreated with cPrG-HCl at a specified concentration for 1 hour and further stimulated with phorbol ester myristate acetate PMA (1 μg/ml) for 4 hours, after which luciferase activity was measured."}, "AP-1": {"system": "AP-1", "test": "EMSA of AP-1 DNA binding activity", "assay_type": "cell-based", "experimental": "In addition, in order to reveal the mechanism of the suppression of AP-1 transcriptional activation, the effect of cPrG-HCl on upstream kinases, i.e., JNK and p38, was analyzed. Further, relationship between the suppression of AP-1 transcriptional activation by cPrG-HCl and the acidification of intracellular pH was studied."}}, "note": "“Also recorded” adds a separate entry of the source. Structures can show the parent of a compound that is named as a salt."}
{"compound": "COC1=CC(c2ccc[nH]2)=N/C1=C\\c1[nH]c(C)c2c1C(C)CCC2", "note": "(stereo not drawn) [cPrG-HCl, Cycloprodigiosin hydrochloride]", "values": [{"measurement": "DNA binding activation of NF-κB", "setting": "NF-κB [1]; PMA stimulation, FIG. 3B", "value": "inhibited neither"}, {"measurement": "DNA binding activity of NF-κB", "setting": "NF-κB [1]; TNFα stimulation, FIG. 2G", "value": "did not suppress"}, {"measurement": "effect on JNK kinase", "setting": "JNK", "value": "suppressed neither; also recorded: no suppression"}, {"measurement": "gene expression induction by NF-κB", "setting": "NF-κB [2]", "value": "significantly suppressed"}, {"measurement": "nuclear translocation of NF-κB", "setting": "NF-κB [3]", "value": "no suppressive effect"}, {"measurement": "DNA fragmentation", "setting": "HeLa cells", "value": "marked DNA fragmentation; also recorded: significant DNA fragmentation"}, {"measurement": "effect on casein kinase II (CKII) activity", "setting": "casein kinase II (CKII)", "value": "does not directly suppress; also recorded: no suppressive effect"}, {"measurement": "PMA-induced CRE-dependent transcriptional activity", "setting": "CRE binding factor", "value": "markedly suppressed"}, {"measurement": "DNA binding activity of AP-1", "setting": "AP-1", "value": "no inhibitory effect"}]}
